US10526316B2, “Quinoxaline and pyridopyrazine derivatives as PI3Kβ inhibitors” (Janssen Pharmaceutica NV, priority 2015, dated 2020)
Read-outs that look alike come from different tables or passages of the source.

Tests used:
PI3Kδ = biological target: T1, PI3Kδ (Homo sapiens, UniProt O00329); assay: Enzyme binding assay (KINOMEscan, DiscoveRx); settings: PIK3Cδ_h
T1 construct: purchased DiscoveRx Corporation, San Diego (contract service, KINOMEscan)
T1 sequence (O00329 1-1044): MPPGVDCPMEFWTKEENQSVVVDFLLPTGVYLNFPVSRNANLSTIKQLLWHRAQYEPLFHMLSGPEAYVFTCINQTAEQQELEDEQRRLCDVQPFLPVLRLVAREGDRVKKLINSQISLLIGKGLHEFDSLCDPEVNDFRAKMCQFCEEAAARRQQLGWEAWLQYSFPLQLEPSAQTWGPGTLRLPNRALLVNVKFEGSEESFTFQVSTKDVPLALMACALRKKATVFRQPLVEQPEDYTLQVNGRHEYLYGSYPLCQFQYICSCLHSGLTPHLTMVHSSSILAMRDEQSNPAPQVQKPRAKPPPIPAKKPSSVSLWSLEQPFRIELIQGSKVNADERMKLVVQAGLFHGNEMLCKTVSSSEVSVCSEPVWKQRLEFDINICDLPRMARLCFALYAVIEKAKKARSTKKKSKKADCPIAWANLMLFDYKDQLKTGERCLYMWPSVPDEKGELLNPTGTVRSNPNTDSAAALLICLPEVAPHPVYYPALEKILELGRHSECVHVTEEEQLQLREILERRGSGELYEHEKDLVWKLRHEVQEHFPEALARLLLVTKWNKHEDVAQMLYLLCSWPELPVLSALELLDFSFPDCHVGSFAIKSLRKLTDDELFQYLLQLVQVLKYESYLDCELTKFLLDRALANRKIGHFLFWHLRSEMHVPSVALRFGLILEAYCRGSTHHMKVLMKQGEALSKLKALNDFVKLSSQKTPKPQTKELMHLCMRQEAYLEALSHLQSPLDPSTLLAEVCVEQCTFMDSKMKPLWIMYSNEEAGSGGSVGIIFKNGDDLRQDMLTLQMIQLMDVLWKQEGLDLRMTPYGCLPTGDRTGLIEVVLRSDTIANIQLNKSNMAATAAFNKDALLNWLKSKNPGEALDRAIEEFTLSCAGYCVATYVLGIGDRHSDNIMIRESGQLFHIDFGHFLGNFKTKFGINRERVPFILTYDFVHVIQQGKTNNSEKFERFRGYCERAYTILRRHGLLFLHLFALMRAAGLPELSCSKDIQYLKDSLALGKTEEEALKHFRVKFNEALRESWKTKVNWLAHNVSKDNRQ
How it was run: (§1)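 Binding affinities were measured on the KINOMEscan platform.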

[1] = system: Akt phosphorylated at Thr308 in PC-3 cells; assay: Cellular assay: phosphorylation of Akt at Thr308 in PC-3 cells (MSD ELISA); assay type: cell-based; settings: PC-3 cells, 60 min compound incubation, MSD ELISA, read-out: IC50 pAkt_Thr308
How it was run: (§2)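 After lysis of treated cells (60 min, 37° C, 0.3% DMSO), phospho-Akt levels were measured by MSD electrochemiluminescence ELISA. Potency was derived from concentration-response curves fitted over five concentrations.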

PI3Kβ = biological target: T2, PI3Kβ (Homo sapiens, UniProt P42338); assay: Enzyme binding assay (KINOMEscan, DiscoveRx); settings: PIK3Cβ_h, read-out: Kd PIK3Cβ_h
T2 construct: purchased DiscoveRx Corporation, San Diego (contract service, KINOMEscan)
T2 sequence (P42338 whole entry): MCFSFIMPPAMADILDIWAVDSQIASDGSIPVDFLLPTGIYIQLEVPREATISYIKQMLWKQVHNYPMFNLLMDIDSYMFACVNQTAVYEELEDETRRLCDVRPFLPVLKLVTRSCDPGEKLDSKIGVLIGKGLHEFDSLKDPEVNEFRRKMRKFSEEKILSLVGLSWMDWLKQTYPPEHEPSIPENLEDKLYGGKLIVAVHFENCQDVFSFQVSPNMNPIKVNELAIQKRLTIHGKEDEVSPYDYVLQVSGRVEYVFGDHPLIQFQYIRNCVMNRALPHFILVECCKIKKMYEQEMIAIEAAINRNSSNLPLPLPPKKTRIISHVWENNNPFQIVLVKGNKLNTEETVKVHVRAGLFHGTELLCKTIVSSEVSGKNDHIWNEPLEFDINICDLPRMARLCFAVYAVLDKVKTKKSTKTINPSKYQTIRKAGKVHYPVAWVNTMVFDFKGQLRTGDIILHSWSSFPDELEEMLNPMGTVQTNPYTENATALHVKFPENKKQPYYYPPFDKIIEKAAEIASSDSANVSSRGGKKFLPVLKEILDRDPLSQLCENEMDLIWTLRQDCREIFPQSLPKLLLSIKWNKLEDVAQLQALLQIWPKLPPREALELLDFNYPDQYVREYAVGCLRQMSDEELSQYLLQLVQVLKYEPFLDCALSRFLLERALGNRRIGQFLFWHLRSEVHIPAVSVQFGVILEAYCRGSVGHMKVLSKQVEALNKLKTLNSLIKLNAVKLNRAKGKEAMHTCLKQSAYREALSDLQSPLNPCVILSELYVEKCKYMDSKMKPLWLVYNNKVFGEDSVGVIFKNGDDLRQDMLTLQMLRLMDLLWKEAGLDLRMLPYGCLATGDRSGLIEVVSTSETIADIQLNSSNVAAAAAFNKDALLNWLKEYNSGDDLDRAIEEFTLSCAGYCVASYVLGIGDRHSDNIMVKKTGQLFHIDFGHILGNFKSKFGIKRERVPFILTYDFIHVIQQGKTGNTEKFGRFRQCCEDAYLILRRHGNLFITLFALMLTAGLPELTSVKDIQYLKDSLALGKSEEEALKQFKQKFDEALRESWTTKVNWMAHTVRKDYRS
How it was run: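 Kinase binding affinities were measured with KINOMEscan technology. Results are given as Kd, the inhibitor binding constant, in nM.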

kinase enzymes [2] = biological target: T3, kinase enzymes (Homo sapiens, UniProt P48736); assay: Enzyme binding assay (KINOMEscan, DiscoveRx), further kinases of Table A; settings: PIK3Cγ_h
T3 construct: purchased DiscoveRx Corporation, San Diego (contract service, KINOMEscan)
T3 sequence (P48736 whole entry): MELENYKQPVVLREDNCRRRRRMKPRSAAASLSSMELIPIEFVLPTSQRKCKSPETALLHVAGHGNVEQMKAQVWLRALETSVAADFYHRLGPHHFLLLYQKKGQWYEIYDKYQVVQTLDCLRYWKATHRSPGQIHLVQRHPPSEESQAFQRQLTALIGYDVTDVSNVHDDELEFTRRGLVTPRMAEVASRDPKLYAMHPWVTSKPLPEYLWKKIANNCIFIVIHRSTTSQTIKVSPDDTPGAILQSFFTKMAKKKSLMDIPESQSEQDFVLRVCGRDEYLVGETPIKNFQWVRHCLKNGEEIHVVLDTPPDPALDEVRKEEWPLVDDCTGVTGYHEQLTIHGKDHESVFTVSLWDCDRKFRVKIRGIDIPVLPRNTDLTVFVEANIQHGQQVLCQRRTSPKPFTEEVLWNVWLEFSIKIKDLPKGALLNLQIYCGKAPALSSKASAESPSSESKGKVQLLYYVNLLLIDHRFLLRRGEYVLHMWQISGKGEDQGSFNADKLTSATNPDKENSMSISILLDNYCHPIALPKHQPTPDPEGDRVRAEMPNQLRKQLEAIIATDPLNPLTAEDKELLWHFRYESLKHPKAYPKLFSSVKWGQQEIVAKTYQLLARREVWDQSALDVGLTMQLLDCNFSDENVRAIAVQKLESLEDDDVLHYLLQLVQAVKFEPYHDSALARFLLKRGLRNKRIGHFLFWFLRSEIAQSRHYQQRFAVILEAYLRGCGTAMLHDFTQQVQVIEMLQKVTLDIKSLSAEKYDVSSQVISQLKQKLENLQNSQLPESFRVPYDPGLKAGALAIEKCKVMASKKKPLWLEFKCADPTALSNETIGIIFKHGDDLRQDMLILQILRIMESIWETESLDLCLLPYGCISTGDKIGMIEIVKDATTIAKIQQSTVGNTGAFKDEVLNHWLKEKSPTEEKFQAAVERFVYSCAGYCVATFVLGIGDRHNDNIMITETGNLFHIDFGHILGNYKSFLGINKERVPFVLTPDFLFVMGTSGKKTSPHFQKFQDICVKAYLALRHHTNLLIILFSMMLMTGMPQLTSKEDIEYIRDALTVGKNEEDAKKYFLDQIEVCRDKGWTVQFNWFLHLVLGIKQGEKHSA
How it was run: as §1

kinase enzymes [3] = biological target: T4, kinase enzymes (Homo sapiens, UniProt P42345); assay: as above; settings: MTOR_h
T4 construct: purchased DiscoveRx Corporation, San Diego (contract service, KINOMEscan)
How it was run: as §1

kinase enzymes [4] = biological target: T5, kinase enzymes (Homo sapiens, UniProt P42336); assay: as above; settings: PIK3Cα_h
T5 construct: purchased DiscoveRx Corporation, San Diego (contract service, KINOMEscan)
T5 sequence (P42336 whole entry): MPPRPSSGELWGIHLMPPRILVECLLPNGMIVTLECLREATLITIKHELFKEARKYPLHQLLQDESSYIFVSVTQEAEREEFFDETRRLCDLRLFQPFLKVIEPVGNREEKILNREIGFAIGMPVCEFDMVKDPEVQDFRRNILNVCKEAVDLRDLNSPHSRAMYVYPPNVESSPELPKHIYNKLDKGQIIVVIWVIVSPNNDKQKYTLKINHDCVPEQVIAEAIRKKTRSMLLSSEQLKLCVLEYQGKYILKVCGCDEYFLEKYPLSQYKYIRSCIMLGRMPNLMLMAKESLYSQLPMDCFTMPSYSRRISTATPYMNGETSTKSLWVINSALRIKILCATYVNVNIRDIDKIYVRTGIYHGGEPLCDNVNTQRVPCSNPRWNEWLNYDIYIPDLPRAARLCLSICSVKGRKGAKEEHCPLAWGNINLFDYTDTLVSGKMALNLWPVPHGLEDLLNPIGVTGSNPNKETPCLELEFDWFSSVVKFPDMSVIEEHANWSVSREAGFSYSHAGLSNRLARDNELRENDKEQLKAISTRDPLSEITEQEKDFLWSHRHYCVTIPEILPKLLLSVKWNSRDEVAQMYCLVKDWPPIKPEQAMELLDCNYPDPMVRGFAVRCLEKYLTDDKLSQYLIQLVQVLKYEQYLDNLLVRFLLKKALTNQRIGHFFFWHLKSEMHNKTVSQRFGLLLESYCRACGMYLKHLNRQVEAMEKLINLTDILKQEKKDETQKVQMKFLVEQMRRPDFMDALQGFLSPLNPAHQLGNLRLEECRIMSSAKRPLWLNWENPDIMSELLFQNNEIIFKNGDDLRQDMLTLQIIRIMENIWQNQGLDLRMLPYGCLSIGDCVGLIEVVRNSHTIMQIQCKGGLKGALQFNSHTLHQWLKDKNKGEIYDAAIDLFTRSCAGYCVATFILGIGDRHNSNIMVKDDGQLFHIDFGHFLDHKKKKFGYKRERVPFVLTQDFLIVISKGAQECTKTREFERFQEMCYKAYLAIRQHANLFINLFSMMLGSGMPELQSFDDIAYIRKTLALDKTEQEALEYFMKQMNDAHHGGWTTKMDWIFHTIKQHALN
How it was run: as §1

[5] = system: Akt phosphorylated at Ser473 in PC-3 cells; assay: Cellular assay: phosphorylation of Akt at Ser473 in PC-3 cells (MSD ELISA); assay type: cell-based; settings: PC-3 cells, 60 min compound incubation, MSD ELISA, read-out: IC50 pAkt_S473
How it was run: as §2

Kd (PI3Kδ) [nM] | IC50 ([1]; Homo sapiens, PC-3, 1 h) [nM] | Kd (PI3Kβ) [nM] | melting point [°C] | Kd (kinase enzymes [2]) [nM] | Kd (kinase enzymes [3]) [nM] | Kd (kinase enzymes [4]) [nM] | IC50 ([5]; Homo sapiens, PC-3, 1 h) [nM] | IC50 [1] [nM] | IC50 [5] [nM] | SMILES
1230 | > 513 | 11 | 115 | 1380 | 6760 | 437 | > 513 |  |  | CC(Nc1cccc(F)c1)c1cc(C(=O)NCC(=O)O)cc2ncc(N3CCOCC3)nc12 (single isomer, unassigned) [Compound 393a]
25700 |  | 2290 | 196 | 6610 | 15800 | 11000 |  | > 513 | > 513 | CC(Nc1cccc(F)c1)c1cc(C(=O)NCC(=O)O)cc2ncc(N3CCOCC3)nc12 (single isomer, unassigned) [Compound 393b]
1260 | > 513 | 33 | 90 | 17800 | > 30200 | 3470 | > 513 |  |  | CN(C)C(=O)c1cc(N2CCCC2c2cc(F)cc(F)c2)c2nc(N3CCOCC3)cnc2c1 (single isomer, unassigned) [Compound 395a]
3550 |  | 631 | 102 | 32400 | 18600 | 3980 |  | > 513 | > 513 | CN(C)C(=O)c1cc(N2CCCC2c2cc(F)cc(F)c2)c2nc(N3CCOCC3)cnc2c1 (single isomer, unassigned) [Compound 395b]
10700 | > 513 | 1410 | 80 | 25100 | 15500 | 3630 | > 513 |  |  | CN(C)C(=O)c1cc(N2CCC2c2ccc(F)cc2)c2nc(N3CCOCC3)cnc2c1 (single isomer, unassigned) [Compound 397a]
331 |  | 3 | 53 | 8910 | > 30200 | 1480 | ~275 | ~132 |  | CC(Oc1cc(F)cc(F)c1)c1cc(C(=O)N(C)C)cc2ncc(C3=CCOCC3)nc12 (single isomer, unassigned) [Compound 403a]
17400 |  | 3160 | 54 | > 30200 | > 30200 | > 30200 |  | > 513 | > 513 | CC(Oc1cc(F)cc(F)c1)c1cc(C(=O)N(C)C)cc2ncc(C3=CCOCC3)nc12 (single isomer, unassigned) [Compound 403b]
39 |  | 0.1 | 80 | 1050 | 22900 | 372 |  | 4 | 8 | CNCCNC(=O)c1cc(C(C)Nc2cc(F)cc(F)c2)c2nc(N3CCOCC3)cnc2c1 (single isomer, unassigned) [Compound 406a]

Second part, the compound before the results:

SMILES | Kd (PI3Kδ) [nM] | IC50 ([1]; Homo sapiens, PC-3, 1 h) [nM] | Kd (PI3Kβ) [nM] | melting point [°C] | Kd (kinase enzymes [2]) [nM] | Kd (kinase enzymes [3]) [nM] | Kd (kinase enzymes [4]) [nM] | IC50 ([5]; Homo sapiens, PC-3, 1 h) [nM] | IC50 [1] [nM] | IC50 [5] [nM]
OCc1cc(C2CCCN2c2cc(F)cc(F)c2)c2nc(N3CCOCC3)cnc2c1 (centres unmarked) [Compound 10] | 74 | 3 | 0.5 | 189 | 336 | > 30200 | 142 | 4 |  | 
CC(Nc1cc(F)cc(F)c1)c1cc(C(=O)N(C)C)cc2ncc(N3CCOCC3)nc12 (centres unmarked) [Compound 11] | 275 | 42 | 1 | 228 | 2510 | > 30200 | 631 | 81 |  | 
OCCNCc1cc(C2CCCN2c2cc(F)cc(F)c2)c2nc(N3CCOCC3)cnc2c1 (centres unmarked) [Compound 14] | 36 | 11 | 0.2 | 140 | 229 | > 10000 | 174 | 31 |  | 
CC(O)c1cc(C2CCCN2c2cc(F)cc(F)c2)c2nc(N3CCOCC3)cnc2c1 (centres unmarked) [Compound 16] | 16 | 2 | 1 | 80 | 126 | 17000 | 93 | ~5 |  | 
CNCC(O)c1cc(C2CCCN2c2cc(F)cc(F)c2)c2nc(N3CCOCC3)cnc2c1 (centres unmarked) [Compound 19] | 29 | 10 | 0.2 | 80 | 309 | 18200 | 363 | 15 |  | 
CCN(c1cccc(F)c1)C(C)c1cc(C(=O)N2CCOCC2)cc2ncc(N3CCOCC3)nc12 (centres unmarked) [Compound 20] | 1550 | 372 | 17 | 80 | 22400 | 21900 | 3630 | 363 |  | 
CN(C)C(=O)c1cc(C2CCCN2c2ccccc2)c2nc(N3CCOCC3)cnc2c1 (centres unmarked) [Compound 27] | 58 | 14 | 1 | 80 | 1620 | > 30200 | 269 | 22 |  | 
CN(C)C(=O)c1cc(C2CCCN2c2cccc(F)c2)c2nc(N3CCOCC3)cnc2c1 (centres unmarked) [Compound 28] | 29 | 6 | 1 | 80 | 832 | > 30200 | 107 | 5 |  | 
COc1cc(F)cc(N2CCCC2c2cc(C(=O)N(C)C)cc3ncc(N4CCOCC4)nc23)c1 (centres unmarked) [Compound 32] | 85 | 17 | 1 | 80 | 646 | > 30200 | 120 | 12 |  | 
O=C(c1cc(C2CCCN2c2cc(F)cc(F)c2)c2nc(N3CCOCC3)cnc2c1)N1CC2(C1)CS(=O)(=O)C2 (centres unmarked) [Compound 34] | 30 | 3 | 0.4 | 160 | 933 | > 30200 | 50 | < 0.8 |  | 
Cc1cc(F)cc(N2CCCC2c2cc(C(=O)N(C)C)cc3ncc(N4CCOCC4)nc23)c1 (centres unmarked) [Compound 35] | 151 | ~26.9 | 2 | 80 | 1910 | > 30200 | 162 | ~39 |  | 
COc1cccc(N2CCCC2c2cc(C(=O)N(C)C)cc3ncc(N4CCOCC4)nc23)c1 (centres unmarked) [Compound 41] | 141 | 22 | 1 | 80 | 1380 | > 30200 | 389 | 31 |  | 
CN(C)C(=O)c1cc(C2CCCN2c2ccc(F)cc2)c2nc(N3CCOCC3)cnc2c1 (centres unmarked) [Compound 42] | 56 | 11 | 1 | 80 | 1480 | > 30200 | 331 | 16 |  | 
CN(C)C(=O)c1cc(C2CCCN2c2cc(F)cc(C=O)c2)c2nc(N3CCOCC3)cnc2c1 (centres unmarked) [Compound 44] | 174 | 66 | 1 | 80 | 631 | 23400 | 234 | 74 |  | 
